This is an account of results in patent publication US20210198256A1, “COMPOUNDS FOR THE DEGRADATION OF BRD9 OR MTH1” (C4 Therapeutics, Inc., priority 2018, published 2021).

Where only a bound is given, the exact number is not on record here.

The test system of the assay is SMARTCAR-MTH1-wt-HiBiT (Jurkat.7 cells). In words: HiBit Lytic Assay (HiBit DC50, MTH1 degraders of Table 2). Format: cell-based, human. The note with it: Jurkat.7 SMARTCAR-MTH1-wt-HiBiT cells, compound treatment time 4 hr, 11-point half log dose response. An outline of the steps:
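Jurkat.7 cells expressing SMARTCAR-MTH1-wt-HiBiT were treated at 37° C with 11-point half-log dilutions (top final 1000 nM or 833 nM, duplicates, 0.1% DMSO). Remaining HiBiT-tagged protein was read by Nano-Glo HiBiT lytic luminescence, normalized to media-only and DMSO controls.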
In the case of `CNc1c(C(=O)NC2CC2)cnc2cc(C(F)(F)F)c(-c3ccc(C(=O)NCCCCCCCCc4ccc5c(n4)CN(C4CCC(=O)NC4=O)C5=O)c(F)c3)cc12` (stereo not shown) [Compound 409, N-cyclopropyl-6-[4-[8-[6-(2,6-dioxo-3-piperidyl)-5-oxo-7H-pyrrolo[3,4-b]pyridin-2-yl]octylcarbamoyl]-3-fluoro-phenyl]-4-(methylamino)-7-(trifluoromethyl)quinoline-3-carboxamide], the DC50 was less than 0.1 µM.

`CNc1c(C(=O)NC2CC2)cnc2cc(F)c(-c3ccc(C(=O)NCCCCn4cc(CNc5cccc6c5C(=O)N(C5CCC(=O)NC5=O)C6=O)nn4)c(F)c3)cc12` (stereo not shown) [Compound 411, N-cyclopropyl-6-[4-[4-[4-[[[2-(2,6-dioxo-3-piperidyl)-1,3-dioxo-isoindolin-4-yl]amino]methyl]triazol-1-yl]butylcarbamoyl]-3-fluoro-phenyl]-7-fluoro-4-(methylamino)quinoline-3-carboxamide] came in with a DC50 of less than 0.1 µM.

For `CNc1c(C(=O)NC2CC2)cnc2cc(F)c(-c3ccc(C(=O)NCCCCn4cc(COc5cccc6c5C(=O)N(C5CCC(=O)NC5=O)C6=O)nn4)c(F)c3)cc12` (stereo not shown) [Compound 412, N-cyclopropyl-6-[4-[4-[4-[[2-(2,6-dioxo-3-piperidyl)-1,3-dioxo-isoindolin-4-yl]oxymethyl]triazol-1-yl]butylcarbamoyl]-3-fluoro-phenyl]-7-fluoro-4-(methylamino)quinoline-3-carboxamide], the 50% degradation concentration (DC50) was less than 0.1 µM.

`O=C1CCC(N2C(=O)c3cccc(OCc4cn(CCCCNC(=O)c5ccc(-c6cc7c(Nc8ccccc8)c(C(=O)NC8CC8)cnc7cc6F)cc5F)nn4)c3C2=O)C(=O)N1` (stereo not shown) [Compound 413, 4-anilino-N-cyclopropyl-6-[4-[4-[4-[[2-(2,6-dioxo-3-piperidyl)-1,3-dioxo-isoindolin-4-yl]oxymethyl]triazol-1-yl]butylcarbamoyl]-3-fluoro-phenyl]-7-fluoro-quinoline-3-carboxamide] had a DC50 of less than 0.1 µM.

In the case of `COc1cc2ncc(C(=O)NC3CC3)c(Nc3ccccc3)c2cc1-c1ccc(C(=O)NCCCCn2cc(COc3cccc4c3C(=O)N(C3CCC(=O)NC3=O)C4=O)nn2)c(F)c1` (stereo not shown) [Compound 414, 4-anilino-N-cyclopropyl-6-[4-[4-[4-[[2-(2,6-dioxo-3-piperidyl)-1,3-dioxo-isoindolin-4-yl]oxymethyl]triazol-1-yl]butylcarbamoyl]-3-fluoro-phenyl]-7-methoxy-quinoline-3-carboxamide], the 50% degradation concentration (DC50) is less than 0.1 µM.

For `O=C1CCC(N2C(=O)c3cccc(OCc4cn(CCCCNC(=O)c5ccc(-c6cc7c(Nc8ccccc8)c(C(=O)NC8CC8)cnc7cc6C(F)(F)F)cc5F)nn4)c3C2=O)C(=O)N1` (stereo not shown) [Compound 415, 4-anilino-N-cyclopropyl-6-[4-[4-[4-[[2-(2,6-dioxo-3-piperidyl)-1,3-dioxo-isoindolin-4-yl]oxymethyl]triazol-1-yl]butylcarbamoyl]-3-fluoro-phenyl]-7-(trifluoromethyl)quinoline-3-carboxamide], the DC50 was less than 0.1 µM.

In turn, `CNc1c(C(=O)NC2CC2)cnc2cc(F)c(-c3ccc(C(=O)NCCCCNC(=O)CCc4cccc5c4CN(C4CCC(=O)NC4=O)C5=O)c(F)c3)cc12` (stereo not shown) [Compound 419, N-cyclopropyl-6-[4-[4-[3-[2-(2,6-dioxo-3-piperidyl)-1-oxo-isoindolin-4-yl]propanoylamino]butylcarbamoyl]-3-fluoro-phenyl]-7-fluoro-4-(methylamino)quinoline-3-carboxamide] yielded a DC50 of less than 0.1 µM.

As for `CNc1c(C(=O)NC2CC2)cnc2cc(C(F)(F)F)c(-c3ccc(C(=O)NCCCCn4cc(C5(Nc6cccc7c6C(=O)N(C6CCC(=O)NC6=O)C7=O)CC5)nn4)c(F)c3)cc12` (stereo not shown) [Compound 421, N-cyclopropyl-6-[4-[4-[4-[1-[[2-(2,6-dioxo-3-piperidyl)-1,3-dioxo-isoindolin-4-yl]amino]cyclopropyl]triazol-1-yl]butylcarbamoyl]-3-fluoro-phenyl]-4-(methylamino)-7-(trifluoromethyl)quinoline-3-carboxamide], the DC50 is less than 0.1 µM.

Take `O=C(CNc1cccc2c1C(=O)N(C1CCC(=O)NC1=O)C2=O)NCCCCNC(=O)c1ccc(-c2cc3c(NC45CC(C4)C5)c(C(=O)NC4CC4)cnc3cc2F)cc1F` (stereo not shown) [Compound 424, 4-(3-bicyclo[1.1.1]pentanylamino)-N-cyclopropyl-6-[4-[4-[[2-[[2-(2,6-dioxo-3-piperidyl)-1,3-dioxo-isoindolin-4-yl]amino]acetyl]amino]butylcarbamoyl]-3-fluoro-phenyl]-7-fluoro-quinoline-3-carboxamide]: the DC50 is less than 0.1 µM.

`CC(NC(=O)CCCCNC(=O)CNc1cccc2c1C(=O)N(C1CCC(=O)NC1=O)C2=O)c1ccc(-c2cc3c(Nc4ccccc4)c(C(=O)NC4CC4)cnc3cc2F)cc1F` (stereo not shown) [Compound 429, 4-anilino-N-cyclopropyl-6-[4-[1-[5-[[2-[[2-(2,6-dioxo-3-piperidyl)-1,3-dioxo-isoindolin-4-yl]amino]acetyl]amino]pentanoylamino]ethyl]-3-fluoro-phenyl]-7-fluoro-quinoline-3-carboxamide] yielded a DC50 of less than 0.1 µM.

Take `CNc1c(C(=O)NC2CC2)cnc2cc(C(F)(F)F)c(-c3ccc(C(=O)NCCCCn4cc(C(C)Nc5cccc6c5C(=O)N(C5CCC(=O)NC5=O)C6=O)nn4)c(F)c3)cc12` (stereo not shown) [Compound 430, N-cyclopropyl-6-[4-[4-[4-[1-[[2-(2,6-dioxo-3-piperidyl)-1,3-dioxo-isoindolin-4-yl]amino]ethyl]triazol-1-yl]butylcarbamoyl]-3-fluoro-phenyl]-4-(methylamino)-7-(trifluoromethyl)quinoline-3-carboxamide]: the 50% degradation concentration (DC50) is less than 0.1 µM.

For `CNc1c(C(=O)NC2CC2)cnc2cc(C(F)(F)F)c(-c3ccc(C(=O)NCCCCn4cc(C(C)Nc5cccc6c5C(=O)N(C5CCC(=O)NC5=O)C6=O)nn4)nc3)cc12` (stereo not shown) [Compound 431, N-cyclopropyl-6-(6-((4-(4-(1-((2-(2,6-dioxopiperidin-3-yl)-1,3-dioxoisoindolin-4-yl)amino)ethyl)-1H-1,2,3-triazol-1-yl)butyl)carbamoyl)pyridin-3-yl)-4-(methylamino)-7-(trifluoromethyl)quinoline-3-carboxamide], the half-maximal degradation concentration (DC50) was less than 1 µM.

On to `COc1cc2ncc(C(=O)NC3CC3)c(Nc3ccccc3)c2cc1-c1ccc(C(=O)NCCCCn2cc(C(C)Nc3cccc4c3C(=O)N(C3CCC(=O)NC3=O)C4=O)nn2)c(F)c1` (stereo not shown) [Compound 432, N-cyclopropyl-6-(4-((4-(4-(1-((2-(2,6-dioxopiperidin-3-yl)-1,3-dioxoisoindolin-4-yl)amino)ethyl)-1H-1,2,3-triazol-1-yl)butyl)carbamoyl)-3-fluorophenyl)-7-methoxy-4-(phenylamino)quinoline-3-carboxamide], for which the DC50 was less than 0.1 µM.

`CC(Nc1cccc2c1C(=O)N(C1CCC(=O)NC1=O)C2=O)c1cn(CCCCNC(=O)c2ccc(-c3cc4c(Nc5ccccc5)c(C(=O)NC5CC5)cnc4cc3F)cc2F)nn1` (stereo not shown) [Compound 433, N-cyclopropyl-6-(4-((4-(4-(1-((2-(2,6-dioxopiperidin-3-yl)-1,3-dioxoisoindolin-4-yl)amino)ethyl)-1H-1,2,3-triazol-1-yl)butyl)carbamoyl)-3-fluorophenyl)-7-fluoro-4-(phenylamino)quinoline-3-carboxamide] returned a half-maximal degradation concentration (DC50) of less than 0.1 µM.

Compound `CC(Nc1cccc2c1C(=O)N(C1CCC(=O)NC1=O)C2=O)c1cn(CCCCNC(=O)c2ccc(-c3cc4c(Nc5ccccc5)c(C(=O)NC5CC5)cnc4cc3C(F)(F)F)cc2F)nn1` (stereo not shown) [Compound 434, N-cyclopropyl-6-(4-((4-(4-(1-((2-(2,6-dioxopiperidin-3-yl)-1,3-dioxoisoindolin-4-yl)amino)ethyl)-1H-1,2,3-triazol-1-yl)butyl)carbamoyl)-3-fluorophenyl)-4-(phenylamino)-7-(trifluoromethyl)quinoline-3-carboxamide] registered a 50% degradation concentration (DC50) of less than 0.1 µM.

In turn, `CNc1c(C(=O)NC2CC2)cnc2cc(C(F)(F)F)c(-c3ccc(C(=O)NCCCCn4cc(C(C)(C)Nc5cccc6c5C(=O)N(C5CCC(=O)NC5=O)C6=O)nn4)c(F)c3)cc12` (stereo not shown) [Compound 435, N-cyclopropyl-6-(4-((4-(4-(2-((2-(2,6-dioxopiperidin-3-yl)-1,3-dioxoisoindolin-4-yl)amino)propan-2-yl)-1H-1,2,3-triazol-1-yl)butyl)carbamoyl)-3-fluorophenyl)-4-(methylamino)-7-(trifluoromethyl)quinoline-3-carboxamide] displayed a DC50 of less than 0.1 µM.

As for `CNc1c(C(=O)NC2CC2)cnc2cc(F)c(-c3ccc(C(=O)NCCCCn4cc(C(C)(C)Nc5cccc6c5C(=O)N(C5CCC(=O)NC5=O)C6=O)nn4)c(F)c3)cc12` (stereo not shown) [Compound 436, N-cyclopropyl-6-(4-((4-(4-(2-((2-(2,6-dioxopiperidin-3-yl)-1,3-dioxoisoindolin-4-yl)amino)propan-2-yl)-1H-1,2,3-triazol-1-yl)butyl)carbamoyl)-3-fluorophenyl)-7-fluoro-4-(methylamino)quinoline-3-carboxamide], the DC50 is less than 0.1 µM.

The compound `CNc1c(C(=O)NC2CC2)cnc2cc(C(F)(F)F)c(-c3ccc(C(=O)NCCCCn4cc(C(C)(C)Nc5cccc6c5C(=O)N(C5CCC(=O)NC5=O)C6=O)nn4)nc3)cc12` (stereo not shown) [Compound 437, N-cyclopropyl-6-(6-((4-(4-(2-((2-(2,6-dioxopiperidin-3-yl)-1,3-dioxoisoindolin-4-yl)amino)propan-2-yl)-1H-1,2,3-triazol-1-yl)butyl)carbamoyl)pyridin-3-yl)-4-(methylamino)-7-(trifluoromethyl)quinoline-3-carboxamide] registered a 50% degradation concentration (DC50) of less than 0.1 µM.

In the case of `O=C1CCC(N2Cc3c(CCCC(O)C(=O)NCCNC(=O)c4ccc(-c5cc6c(Nc7ccccc7)c(C(=O)NC7CC7)cnc6cc5F)cc4F)cccc3C2=O)C(=O)N1` (stereo not shown) [Compound 439, N-cyclopropyl-6-(4-((2-(5-(2-(2,6-dioxopiperidin-3-yl)-1-oxoisoindolin-4-yl)-2-hydroxypentanamido)ethyl)carbamoyl)-3-fluorophenyl)-7-fluoro-4-(phenylamino)quinoline-3-carboxamide], the DC50 was less than 0.1 µM.
